Reference: article PMC4839570, “Novel Anthra[1,2-c][1,2,5]Thiadiazole-6,11-Diones as Promising Anticancer Lead Compounds: Biological Evaluation, Characterization & Molecular Targets Determination” (PLoS ONE, 2016)
Like-named read-outs stand apart in the source and are kept apart here.

Key:
SK-MEL-2 = experiment: NCI-60 cytotoxicity screen; type: cell-based
UO-31 = experiment: NCI-60 cytotoxicity screen; type: cell-based
RPMI-8226 = experiment: NCI-60 cytotoxicity screen; type: cell-based
UACC-257 = experiment: NCI-60 cytotoxicity screen; type: cell-based
SF-295 = experiment: JFCR-39 cytotoxicity screen; type: cell-based
A498 = experiment: NCI-60 cytotoxicity screen; type: cell-based
PC-3 = experiment: NCI-60 cytotoxicity screen; type: cell-based
SNB-19 = experiment: NCI-60 cytotoxicity screen; type: cell-based
SW-620 = experiment: NCI-60 cytotoxicity screen; type: cell-based
NCI-H522 = experiment: JFCR-39 cytotoxicity screen; type: cell-based
KM12 = experiment: NCI-60 cytotoxicity screen; type: cell-based
[1] = system: NF-κB p65 subunit in OVCAR-3 cells; experiment: Western blotting of nuclear and cytosolic fractions; type: cell-based, human; details: OVCAR-3 nuclear fraction
Method: Treated cells were fractionated into nuclear and cytosolic fractions using the Nuclear/Cytosol fractionation kit (BioVision), separated by electrophoresis in SDS-PAGE gels and transferred to Amersham Hybond-P PVDF Membranes. Membranes were probed with either anti-NF-κB p65 rabbit monoclonal primary antibody [E379] Abcam # ab32536, anti-TATA binding protein (TBP) mouse antibody (1TBP18), or anti-beta Tubulin rabbit antibody [NB600-936]. After washing, membranes were incubated with either goat anti-rabbit IgG H&L (HRP) (ab6721), or rabbit anti-mouse IgG H&L (HRP) (ab6728) secondary antibodies. Membranes were developed using the Immobilon Western chemiluminescent HRP substrate kit. Protein bands were normalized to either the beta Tubulin or TBP bands and quantified using ImageJ software.

SK-OV-3 = experiment: NCI-60 cytotoxicity screen; type: cell-based
M14 = experiment: NCI-60 cytotoxicity screen; type: cell-based
OVCAR-8 = experiment: NCI-60 cytotoxicity screen; type: cell-based
SNB-78 = experiment: JFCR-39 cytotoxicity screen; type: cell-based
HCC-2998 = experiment: NCI-60 cytotoxicity screen; type: cell-based
SR = experiment: NCI-60 cytotoxicity screen; type: cell-based
OVCAR-3 [2] = details: JFCR
MCF7 = experiment: NCI-60 cytotoxicity screen; type: cell-based
T-47D = experiment: NCI-60 cytotoxicity screen; type: cell-based
HBC-4 = experiment: JFCR-39 cytotoxicity screen; type: cell-based
OVCAR-4 = experiment: JFCR-39 cytotoxicity screen; type: cell-based
OVCAR-3 [3] = details: five-dose
UACC-62 = experiment: NCI-60 cytotoxicity screen; type: cell-based
NCI-H23 = experiment: NCI-60 cytotoxicity screen; type: cell-based
HCC2998 = experiment: JFCR-39 cytotoxicity screen; type: cell-based
HS 578T = experiment: NCI-60 cytotoxicity screen; type: cell-based; details: Homo sapiens
K-562 = experiment: NCI-60 cytotoxicity screen; type: cell-based; details: Homo sapiens, K562, Fig 7, read-out: mean log10 of the GI50 values (converted)
[4] = Homo sapiens, Fig 7, read-out: mean log10 of the GI50 values (converted)
[5] = Homo sapiens, five-dose, read-out: GI50
[6] = Homo sapiens, five-dose, read-out: LC50 (the source's name)
[7] = Homo sapiens, read-out: LC50 (the source's name)

Compound: O=C1c2ccccc2C(=O)c2c1cc(Cl)c1nsnc21 [NSC757963]
- GI50 (SK-MEL-2; [4]): 2090 nM
- GI50 (SK-MEL-2; [5]): 2210 nM
- CC50 (SK-MEL-2; [6]): 37.7 µM
- TGI (SK-MEL-2; five-dose): 5.77 µM
- GI50 (UO-31; [4]): 6.31 µM
- GI50 (UO-31; [5]): 14 µM
- CC50 (UO-31; [6]): 52.4 µM
- TGI (UO-31; five-dose): 27.1 µM
- GI50 (RPMI-8226; [4]): 2.88 µM
- GI50 (RPMI-8226; [5]): 3.15 µM
- CC50 (RPMI-8226; [6]): > 100 µM
- TGI (RPMI-8226; five-dose): 53.2 µM
- GI50 (UACC-257; [4]): 7.76 µM
- GI50 (UACC-257; [5]): 14.5 µM
- CC50 (UACC-257; [6]): 53.5 µM
- TGI (UACC-257; five-dose): 27.8 µM
- TGI (SF-295): 3.5 µM
- GI50 (SF-295; Homo sapiens): 1900 nM
- CC50 (SF-295; [7]): 6.5 µM
- GI50 (A498; [4]): 85.1 µM
- GI50 (A498; [5]): 72.8 µM
- CC50 (A498; [6]): > 100 µM
- TGI (A498; five-dose): >100 µM
- GI50 (PC-3; [4]): 2570 nM
- GI50 (PC-3; [5]): 2850 nM
- CC50 (PC-3; [6]): > 100 µM
- TGI (PC-3; five-dose): 30.2 µM
- GI50 (SNB-19; [4]): 9.55 µM
- GI50 (SNB-19; [5]): 13.9 µM
- CC50 (SNB-19; [6]): 58.9 µM
- TGI (SNB-19; five-dose): 28.6 µM
- GI50 (SW-620; [4]): 2510 nM
- GI50 (SW-620; [5]): 2870 nM
- CC50 (SW-620; [6]): 58.7 µM
- TGI (SW-620; five-dose): 10.4 µM
- TGI (NCI-H522): 3.6 µM
- GI50 (NCI-H522; Homo sapiens): 1800 nM
- CC50 (NCI-H522; [7]): 7.3 µM
- GI50 (KM12; [4]): 10.7 µM
- GI50 (KM12; [5]): 12.9 µM
- CC50 (KM12; [6]): 52.1 µM
- TGI (KM12; five-dose): 25.9 µM
- dose of almost complete inhibition of nuclear NF-κB p65 expression [1]: 2.4 µM
- GI50 (SK-OV-3; [4]): 13.2 µM
- GI50 (SK-OV-3; [5]): 17.8 µM
- CC50 (SK-OV-3; [6]): 58 µM
- TGI (SK-OV-3; five-dose): 32.1 µM
- GI50 (M14; [4]): 15.1 µM
- GI50 (M14; [5]): 17 µM
- CC50 (M14; [6]): 59.7 µM
- TGI (M14; five-dose): 31.9 µM
- GI50 (OVCAR-8; [4]): 1320 nM
- GI50 (OVCAR-8; [5]): 2390 nM
- CC50 (OVCAR-8; [6]): > 100 µM
- TGI (OVCAR-8; five-dose): 5.19 µM
- TGI (SNB-78): 4.1 µM
- GI50 (SNB-78; Homo sapiens): 2200 nM
- CC50 (SNB-78; [7]): 7.9 µM
- GI50 (HCC-2998; [4]): 17 µM
- LC50 (concentration causing 50% net cell kill) (HCC-2998; Homo sapiens, five-dose): 56.6 µM
- GI50 (HCC-2998; [5]): 14.1 µM
- TGI (HCC-2998; five-dose): 28.2 µM
- GI50 (SR; [4]): 1820 nM
- GI50 (SR; [5]): 2640 nM
- CC50 (SR; [6]): > 100 µM
- TGI (SR; five-dose): >100 µM
- TGI (OVCAR-3 [2]): 4.2 µM
- GI50 (MCF7; [4]): 1700 nM
- GI50 (MCF7; [5]): 1780 nM
- CC50 (MCF7; [6]): 10.4 µM
- TGI (MCF7; five-dose): 4.24 µM
- GI50 (T-47D; Homo sapiens, T47D, Fig 7, read-out: mean log10 of the GI50 values (converted)): 912 nM
- GI50 (T-47D; Homo sapiens, T47D, five-dose, read-out: GI50): 1970 nM
- CC50 (T-47D; Homo sapiens, T47D, five-dose, read-out: LC50 (the source's name)): > 100 µM
- TGI (T-47D; five-dose): 4.56 µM
- TGI (HBC-4): 3.1 µM
- GI50 (HBC-4; Homo sapiens, HBC4): 1700 nM
- CC50 (HBC-4; Homo sapiens, HBC4, read-out: LC50 (the source's name)): 5.6 µM
- TGI (OVCAR-4): 3.0 µM
- GI50 (OVCAR-4; Homo sapiens): 1600 nM
- CC50 (OVCAR-4; [7]): 5.6 µM
- TGI (OVCAR-3 [3]): 3.23 µM
- GI50 (UACC-62; [4]): 3.47 µM
- GI50 (UACC-62; [5]): 4.43 µM
- CC50 (UACC-62; [6]): 41.8 µM
- TGI (UACC-62; five-dose): 17.0 µM
- GI50 (NCI-H23; [4]): 3.63 µM
- GI50 (NCI-H23; [5]): 3.62 µM
- CC50 (NCI-H23; [6]): 74.6 µM
- TGI (NCI-H23; five-dose): 17.2 µM
- TGI (HCC2998): 3.5 µM
- GI50 (HCC2998; Homo sapiens, HCC 2998): 1900 nM
- CC50 (HCC2998; Homo sapiens, HCC 2998, read-out: LC50 (the source's name)): 6.4 µM
- GI50 (HS 578T; Hs-578T, HS578T, Fig 7, read-out: mean log10 of the GI50 values (converted)): 2510 nM
- GI50 (HS 578T; HS 578T, five-dose, read-out: GI50): 2380 nM
- CC50 (HS 578T; HS 578T, five-dose, read-out: LC50 (the source's name)): > 100 µM
- GI50 (K-562): 759 nM
